Molecules are shown by their SMILES. pKi: −log10 of the molar value.

Common to all, as to format: functional, cell-based
The target of assay [1] is T1, Excitatory amino acid transporter 3 (Homo sapiens, UniProt P43005).
T1 sequence (P43005 whole entry): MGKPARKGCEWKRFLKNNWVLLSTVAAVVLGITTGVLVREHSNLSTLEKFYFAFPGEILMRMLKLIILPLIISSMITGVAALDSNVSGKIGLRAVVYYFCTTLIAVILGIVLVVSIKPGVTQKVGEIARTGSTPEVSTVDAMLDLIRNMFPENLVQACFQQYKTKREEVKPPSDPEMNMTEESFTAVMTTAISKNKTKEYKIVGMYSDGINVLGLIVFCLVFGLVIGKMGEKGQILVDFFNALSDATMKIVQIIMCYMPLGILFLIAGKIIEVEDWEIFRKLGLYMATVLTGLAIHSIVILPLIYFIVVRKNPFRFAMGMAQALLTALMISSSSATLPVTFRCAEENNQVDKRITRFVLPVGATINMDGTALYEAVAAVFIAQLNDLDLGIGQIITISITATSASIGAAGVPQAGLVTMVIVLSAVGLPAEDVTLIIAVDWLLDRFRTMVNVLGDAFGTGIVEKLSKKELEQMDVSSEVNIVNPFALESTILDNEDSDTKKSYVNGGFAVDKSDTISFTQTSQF
As to the kind of experiment: Inhibition of human EAAT3 expressed in HEK293 cells by FLIPR membrane potential assay.

Assay [2] addresses Excitatory amino acid transporter 2 (Homo sapiens, UniProt P43004). As to the kind of experiment: Inhibition of human EAAT2 expressed in HEK293 cells by FLIPR membrane potential assay.
Assay [3] deals with Excitatory amino acid transporter 1 (Homo sapiens, UniProt P43003). As to the kind of experiment: Inhibition of human EAAT1 expressed in HEK293 cells by FLIPR membrane potential assay.
Sequence of Excitatory amino acid transporter 1 (P43003 whole entry): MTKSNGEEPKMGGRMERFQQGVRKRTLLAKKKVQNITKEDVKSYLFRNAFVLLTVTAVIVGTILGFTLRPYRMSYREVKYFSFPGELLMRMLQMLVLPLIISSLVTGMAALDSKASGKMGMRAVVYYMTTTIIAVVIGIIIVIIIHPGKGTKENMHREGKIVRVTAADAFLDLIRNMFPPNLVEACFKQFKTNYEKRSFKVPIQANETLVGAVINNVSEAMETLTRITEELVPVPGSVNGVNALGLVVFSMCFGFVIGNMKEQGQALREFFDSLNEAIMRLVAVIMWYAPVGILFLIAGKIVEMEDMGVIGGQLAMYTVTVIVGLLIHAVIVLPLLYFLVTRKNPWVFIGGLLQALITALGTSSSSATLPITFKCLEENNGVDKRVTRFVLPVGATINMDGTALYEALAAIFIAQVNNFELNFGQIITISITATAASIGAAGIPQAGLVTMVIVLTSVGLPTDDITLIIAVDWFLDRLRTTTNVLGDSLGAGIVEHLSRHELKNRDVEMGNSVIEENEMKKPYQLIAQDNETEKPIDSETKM

Sequence of Excitatory amino acid transporter 2 (P43004 whole entry): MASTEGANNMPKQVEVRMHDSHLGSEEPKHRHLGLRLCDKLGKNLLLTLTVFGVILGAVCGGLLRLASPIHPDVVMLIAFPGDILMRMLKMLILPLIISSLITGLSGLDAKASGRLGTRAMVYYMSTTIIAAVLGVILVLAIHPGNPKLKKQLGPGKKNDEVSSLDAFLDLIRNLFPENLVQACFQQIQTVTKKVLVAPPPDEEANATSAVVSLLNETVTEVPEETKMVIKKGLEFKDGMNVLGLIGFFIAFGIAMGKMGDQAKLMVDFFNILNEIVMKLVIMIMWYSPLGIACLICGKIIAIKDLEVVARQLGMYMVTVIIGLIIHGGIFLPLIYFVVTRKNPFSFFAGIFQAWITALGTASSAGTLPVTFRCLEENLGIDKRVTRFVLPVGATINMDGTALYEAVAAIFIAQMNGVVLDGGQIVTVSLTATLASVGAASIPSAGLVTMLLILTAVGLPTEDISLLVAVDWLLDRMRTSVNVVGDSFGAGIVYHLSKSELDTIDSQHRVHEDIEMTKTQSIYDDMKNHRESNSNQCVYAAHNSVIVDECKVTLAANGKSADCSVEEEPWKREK

For `N[C@H](C(=O)O)[C@@H]1CC[C@H]1C(=O)O`, the pKi in assay [1] was 4.31; in assay [2], 4.66.

Take `N[C@H](C(=O)O)[C@@H]1CC[C@@H]1C(=O)O`: the values for the pKi in assay [3], in assay [1] and in assay [2] were 3.70, 5.00 and 5.18, respectively.

The term pKi denotes the Ki on a negative log10 scale, so that one unit is a factor of ten. Read a low pKi as a high Ki.

The values are drawn from ChEMBL document CHEMBL1137310, “Stereoselective chemoenzymatic synthesis of the four stereoisomers of l-2-(2-carboxycyclobutyl)glycine and pharmacological characterization at human excitatory amino acid transporter subtypes 1, 2, and 3” (J Med Chem, 2006).
